The target of experiment [1] is T1, Neuropilin-1 (NRP-1) (Homo sapiens, UniProt O14786).
T1 construct: containing amino acid residues Phe22-Lys644, with a poly-histidine tag at the C-terminus; purchased ACROBiosystems NR1-H5228
T1 sequence (O14786 22-644 isoform O14786-2): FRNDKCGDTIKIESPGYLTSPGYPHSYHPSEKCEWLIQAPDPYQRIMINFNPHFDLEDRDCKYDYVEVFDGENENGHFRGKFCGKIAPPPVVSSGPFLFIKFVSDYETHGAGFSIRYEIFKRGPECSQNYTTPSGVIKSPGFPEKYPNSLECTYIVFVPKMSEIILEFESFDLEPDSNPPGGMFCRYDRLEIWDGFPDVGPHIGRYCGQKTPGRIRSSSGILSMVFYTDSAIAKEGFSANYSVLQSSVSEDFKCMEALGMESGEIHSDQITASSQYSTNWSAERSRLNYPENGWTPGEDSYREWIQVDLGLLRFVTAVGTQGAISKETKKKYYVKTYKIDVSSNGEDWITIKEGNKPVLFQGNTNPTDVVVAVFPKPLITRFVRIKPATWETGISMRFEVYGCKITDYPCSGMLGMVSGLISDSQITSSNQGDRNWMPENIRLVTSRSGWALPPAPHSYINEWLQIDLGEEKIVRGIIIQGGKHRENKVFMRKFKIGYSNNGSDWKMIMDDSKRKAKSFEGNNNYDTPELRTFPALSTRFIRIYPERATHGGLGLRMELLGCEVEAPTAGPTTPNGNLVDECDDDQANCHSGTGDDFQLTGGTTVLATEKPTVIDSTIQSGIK
Briefly: Surface plasmon resonance (SPR), immobilized NRP-1. The experiment is classed as binding. Particulars: NTA chip, steady-state affinity model, pH 7.4, n = 3, 4 replicates, read-out: dissociation constant (KD) for NRP-1. As for the experimental part:
Surface plasmon resonance (SPR) reagents, plates, and the NTA chip were purchased from GE Healthcare Life Sciences, now Cytiva (Marlborough, MA, USA). Measurements were performed using the Biacore 8000 SPR System (Marlborough, MA. USA). The running buffer used for protein immobilization and peptide binding consisted of 20 mM Tris, 150 mM NaCl, […] and 0.0005% Tween-20, adjusted to pH 7.4. MMP-2 and NRP-1 were immobilized onto the NTA chip at 15 nM and 25 nM concentration, respectively. Peptides were injected over the immobilized proteins using two-fold serial dilutions from 500 µM to 3.90 µM. Three experiments with four replicates of each were performed. The SPR response curves generated from the Biacore Insight Evaluation Software were fitted to a steady-state affinity model to obtain an equilibrium dissociation constant (KD) for each peptide — protein interaction.

Experiment [2] addresses T2, MMP-2 (Homo sapiens, UniProt P08253).
T2 construct: ProSpec Bio; Antibodies-Online; Elabscience; Abcam ENZ-769; ABIN7400042; PKSH033450
T2 sequence (P08253 110-660): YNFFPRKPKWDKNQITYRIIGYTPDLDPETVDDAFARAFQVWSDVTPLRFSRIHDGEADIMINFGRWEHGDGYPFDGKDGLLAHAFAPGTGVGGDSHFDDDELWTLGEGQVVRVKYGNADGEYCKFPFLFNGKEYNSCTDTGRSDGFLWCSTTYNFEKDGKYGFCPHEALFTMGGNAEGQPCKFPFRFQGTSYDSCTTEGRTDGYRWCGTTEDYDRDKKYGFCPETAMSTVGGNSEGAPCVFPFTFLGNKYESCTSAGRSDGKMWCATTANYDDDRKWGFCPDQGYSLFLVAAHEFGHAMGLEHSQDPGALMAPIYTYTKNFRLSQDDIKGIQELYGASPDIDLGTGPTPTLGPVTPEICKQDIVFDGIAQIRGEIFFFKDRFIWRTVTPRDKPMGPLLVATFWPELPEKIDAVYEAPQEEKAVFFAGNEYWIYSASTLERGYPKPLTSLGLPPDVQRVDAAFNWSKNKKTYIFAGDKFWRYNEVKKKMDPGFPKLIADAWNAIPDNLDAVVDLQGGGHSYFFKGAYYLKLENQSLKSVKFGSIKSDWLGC
Nature of the experiment: Differential scanning fluorimetry (DSF). Format: binding. Also noted: Dtm (ΔTm): unit not given here. Particulars: for Dtm (ΔTm), average: average of replicates. As for the experimental part: The melting temperatures (Tm) of recombinant MMP-2 and its complexes with peptides were ascertained using BioRad CFX384 Touch real-time PCR (Hercules, CA, USA). The experiments were performed as previously described. The unfolding of the protein was detected using the fluorescent SYPRO-orange dye (Invitrogen, Carlsbad, CA, USA). MMP-2 and prospective ligand peptides were dissolved in 7.1 pH phosphate buffered saline (154 mM NaCl, 5.6 mM Na2PO4, 1.1 mM KH2PO4), and the reaction mixture was made to a final concentration of 1 µM of protein, either 30 µM ([…]) of peptide, and 1000x dilution of the SYPRO-Orange dye stock from the manufacturer. Excitation and emission filters of the dye were set at 450 − 490 nm and 560 − 580 nm, respectively. The temperature for the reaction was held at 25 °C for 5 min, and then a gradient of 25 °C to 95 °C was applied at a rate of 0.3 °C/min, and the fluorescence was recorded. To determine Tm of the protein, the first derivatives of melting curves were plotted using GraphPad Prism software, version 10.0.3.
(In general: DSF heats the sample and reads unfolding from a dye or from intrinsic fluorescence.)

The target in experiment [3] is T3, MMP-2 (Homo sapiens, UniProt P08253).
T3 construct: purchased Enzo Life Sciences (MMP-2 drug discovery kit)
Nature of the experiment: MMP-2 inhibition assay (Enzo kit, OmniMMP RED fluorogenic substrate). The experiment is classed as biochemical. As for the experimental part: The MMP-2 inhibition assay was performed using the Enzo Life Sciences MMP-2 drug discovery kit. and the quenched fluorogenic substrate OmniMMP RED. Reference substrate was diluted to a final concentration of 5 μM, while the MMP-2 enzyme was diluted to 58 mU/µL, and the N-Isobutyl-N-(4-methoxyphenylsulfonyl)glycyl hydroxamic acid (NNGH) inhibitor was diluted to a concentration of 1/200 in assay buffer. […] The assay was performed using a black 96-well microplate. Fluorescence was measured at excitation/emission wavelengths of 545/576 nm, with a cutoff at 570 nm using Gen5 microplate reader (BioTeK, Shoreline, WA). Baseline fluorescence was recorded before adding NNGH inhibitor which was used as a positive control for MMP-2 inhibition. Reaction mixtures in the plate were incubated at 37 °C for 10 min, and fluorescence was measured at 10 min intervals for the first 30 min, then at 30 min intervals until 2 h had elapsed. […] Statistical analysis was performed using ANOVA with GraphPad Prism software, version 10.0.3.

The mark [4] stands for this setting: peptide 30, P75/P76 experiment 1, replicate 1.
Where [5] appears, read: peptide 30, P75/P76 experiment 1, replicate 2.
The mark [6] stands for this setting: peptide 30, P75/P76 experiment 1, replicate 3.
The mark [7] stands for this setting: peptide 30, P75/P76 experiment 2, replicate 1.
Where [8] appears, read: peptide 30, P75/P76 experiment 2, replicate 2.
Setting [9] is: peptide 30, P75/P76 experiment 2, replicate 3.
The mark [10] stands for this setting: peptide 30, P75/P76 experiment 3, replicate 1.
The mark [11] stands for this setting: peptide 30, P75/P76 experiment 3, replicate 2.
[12] abbreviates: peptide 30, P75/P76 experiment 3, replicate 3.
The mark [13] stands for this setting: peptide 50, P75/P76 experiment 1, replicate 2.
The mark [14] stands for this setting: peptide 50, P75/P76 experiment 1, replicate 3.
The mark [15] stands for this setting: peptide 50, P75/P76 experiment 2, replicate 1.
The mark [16] stands for this setting: peptide 50, P75/P76 experiment 2, replicate 2.
Where [17] appears, read: peptide 50, P75/P76 experiment 2, replicate 3.
Where [18] appears, read: peptide 50, P75/P76 experiment 3, replicate 1.
[19] abbreviates: peptide 50, P75/P76 experiment 3, replicate 2.
Where [20] appears, read: peptide 50, P75/P76 experiment 3, replicate 3.

Here are results for four compounds from PMC13065040 (PLOS One, 2026).

For orientation: Kd means the concentration at which binding is half-saturated.

“And” between values parts separate entries of the source, which are not always exact repeats. Equal entries are not always repeated. Where a SMILES comes first, the peptide text is derived from it. Bridges are numbered along the chain shown (N, C = ends).

As to `CC(=O)NCC(=O)N[C@@H](CCCNC(=N)N)C(=O)NCC(=O)N[C@@H](CCCCN)C(=O)N[C@H]1CSSC[C@@H](C(=O)N[C@@H](CC(C)C)C(=O)N[C@@H](CO)C(=O)N[C@@H](CCCNC(=N)N)C(N)=O)NC(=O)[C@H](CCC(N)=O)NC(=O)[C@@H]2CCCN2C(=O)CNC(=O)[C@H](Cc2ccc(O)cc2)NC1=O` [P75, Ac-[Ser^35,Cyc(28,33)]Ctx(24–36)-NH2] (Ac-GRGKCYGPQCLSR-NH2; disulfide 5-10), the equilibrium dissociation constant (Kd) in experiment [1] was 330 ± 146 µM. For the same compound, the “Dtm (ΔTm)” value in experiment [2] (setting [4]) was found to be 1.067; in experiment [2] (setting [5]), 1.067; in experiment [2] (setting [6]), 1.367; in experiment [2] (setting [7]), 0.6; in experiment [2] (setting [8]), 0.6; in experiment [2] (setting [9]), 0.6. The entries for the “Dtm (ΔTm)” value in experiment [2] (setting [10]), in experiment [2] (setting [11]) and in experiment [2] (setting [12]) were 0.2, -0.4 and -0.1, respectively. For the same compound, the “Dtm (ΔTm), average” value in experiment [2] (peptide 50 (µM per method)) was determined as 0.7556.

On to `COc1ccc(S(=O)(=O)N(CC(=O)NO)CC(C)C)cc1` [NNGH, N-Isobutyl-N-(4-methoxyphenylsulfonyl)glycyl hydroxamic acid], for which the “MMP-2 enzymatic activity, percent of control” value in experiment [3] was 11.2096 and 16.193.

Consider “Ac-[Cys^26,Ser^28,33,Cyc(26,35)]Ctx(24–36)-NH2 [P76]”, for which the “inhibition of MMP-2 enzymatic activity (Fig 10B)” value in experiment [3] (peptides at 1 µM, 50 µM and 100 µM, one-way ANOVA vs control) is reported as “not statistically significant”. In addition, the “ΔTm ± SD, change in melting temperature of MMP-2” value in experiment [2] (1 µM MMP-2, 30 µM (Ctx) or 50 µM (P75 and P76) peptide, PBS pH 7.1, SYPRO-Orange, average and SD of n ≥ 3, SD) was determined as 0.63 ± 0.36 °C. For the same compound, the “Dtm (ΔTm), average” value was 0.6556 in experiment [2] (peptide 30 (µM per method)) and 0.6222 in experiment [2] (peptide 50 (µM per method)). In addition, the “Dtm (ΔTm)” value in experiment [2] (setting [4]) was -0.7333; in experiment [2] (setting [5]), -0.4333; in experiment [2] (setting [6]) it was 0.1667; in experiment [2] (setting [7]), 1.8; in experiment [2] (setting [8]) it was 1.5; in experiment [2] (setting [9]), 1.8. Also, the “Dtm (ΔTm)” value was 0.5 in experiment [2] (setting [10]); 0.5 in experiment [2] (setting [11]); 0.8 in experiment [2] (setting [12]); 0.6 in experiment [2] (setting [13]); 0.6 in experiment [2] (setting [14]); 0.5 in experiment [2] (setting [15]). For the same compound, the “Dtm (ΔTm)” value is 1.2 in experiment [2] (setting [16]); 1.2 in experiment [2] (setting [17]); 0.2 in experiment [2] (setting [18]); 0.5 in experiment [2] (setting [19]); 0.2 in experiment [2] (setting [20]). Also, the Tm of MMP-2 with peptide in experiment [2] (setting [4]) was found to be 45.7 °C; in experiment [2] (setting [5]), 46 °C; in experiment [2] (setting [6]) it was 46.6 °C; in experiment [2] (setting [7]), 48.7 °C; in experiment [2] (setting [8]), 48.4 °C; in experiment [2] (setting [9]), 48.7 °C. Also, the Tm of MMP-2 with peptide is 47.8 °C in experiment [2] (setting [10]); 47.8 °C in experiment [2] (setting [11]); 48.1 °C in experiment [2] (setting [12]); 47.8 °C in experiment [2] (peptide 50, P75/P76 experiment 1, replicate 1); 47.8 °C in experiment [2] (setting [13]); 47.8 °C in experiment [2] (setting [14]). Moreover, the Tm of MMP-2 with peptide in experiment [2] (setting [15]) stood at 47.4 °C; in experiment [2] (setting [16]), 48.1 °C; in experiment [2] (setting [17]) it was 48.1 °C; in experiment [2] (setting [18]) it was 47.5 °C; in experiment [2] (setting [19]), 47.8 °C; in experiment [2] (setting [20]) it was 47.5 °C.

Take `CC(=O)N[C@@H](CCCCN)C(=O)N[C@H]1CSSC[C@@H](C(=O)N[C@@H](CC(C)C)C(N)=O)NC(=O)[C@H](CCC(N)=O)NC(=O)[C@@H]2CCCN2C(=O)CNC(=O)[C@H](Cc2ccc(O)cc2)NC1=O` [P78, Ac-[Cyc(28,33)]Ctx(27–34)-NH2] (Ac-KCYGPQCL-NH2; disulfide 2-7): in experiment [1], the Kd was found to be 267 ± 103 µM.
